Test results published in patent US20230020342A1, “METHOD FOR PRODUCING POLYOL-BASED ESTERS, IN PARTICULAR POLYGLYCEROL ESTERS, FROM HYDROXY CARBOXYLIC ACIDS” (IOI Oleo GmbH, priority 2019, published 2023).

System: pancreatin (Panzytrat 40,000)
Test: Cleavage experiments with pancreatin in water, followed by acid number
Settings: individual esters in pure form, 50° C.
Procedure: The pancreatin is used in the form of the commercially available product Panzytrat® 40,000 from the Allergan company. The whole mixture is stirred on a hot plate at 50° C.; the course of the reaction is determined and monitored by continuously recording the acid number over time.

Substance | cleavage by pancreatin to free 3-hydroxybutyric acid (3-BHB-FS)
3-hydroxybutyric acid di-diglycerol ester | cleaved by pancreatin to the free 3-hydroxybutyric acid
3-hydroxybutyric acid mono-diglycerol ester | cleaved by pancreatin to the free 3-hydroxybutyric acid
3-hydroxybutyric acid tri-diglycerol ester | cleaved by pancreatin to the free 3-hydroxybutyric acid
